Results reported in patent US12662462B2, “Salts of pyridinylmethylenepiperidine derivatives and uses thereof” (SUNSHINE LAKE PHARMA CO., LTD., priority 2020, dated 2026).
Where two headings read alike, the source gives them in different places.

Experiments:
[1] = Solubility experiment in water; format: physicochemical
Protocol: The solubility of the present invention was determined using an Agilent 1200 High Performance Liquid Chromatograph DAD/VWD detector with an Agilent XDB-C18 model (4.6×50 mm, 5 μm). Detection wavelength was 266 nm, flow rate was 1.0 mL/min, the column temperature was 35° C., mobile phase A: acetonitrile: 0.01 M ammonium acetate=10:90 (V:V), analysis methods: acetonitrile: mobile phase A=70:30 (V:V), running time was 10 minutes.
The test sample was taken into 37° C. organic ultrapure water to prepare a supersaturated solution. After shaking for 24 h, the mixture was filtered with an aqueous filter membrane to obtain the filtrate. The solubility of the test sample in water was detected by HPLC.

[2] = Pharmacokinetic experiment in Beagle dogs; format: in vivo, Beagle dog; conditions: oral capsules, 5 mg/kg
Protocol: The inventors conducted a pharmacokinetic evaluation of the salt or its crystal form of the present invention in Beagle dogs.
The test sample (i.e., the salt or crystal form of the present invention, or the compound having formula (I) of the present invention) was filled into capsules for oral administration. The animals were fasted for 12 h before the administration, and they had free drinking water. Capsules containing test samples were administered orally at a dose of 5 mg/kg. After administration, intravenous blood was collected at the following time points (about 0.15 mL of blood taken): 0.25, 0.5, 1.0, 2.0, 4.0, 6.0, 8.0 and 24 h. EDTA-K2 was added as an anticoagulant in the blood collection tube in advance, the blood sample was centrifuged at 12,000 rpm for 2 minutes, the plasma was collected, and stored at −20° C. or −70° C.
After processing the plasma samples collected above (after the frozen plasma was thawed at room temperature, it was whirled for 5 minutes to mix well, then 20 μL of plasma was taken, 120 μL of acetonitrile solution containing internal standard was added, the mixture was whirled for 5 minutes to mix well, and centrifuged at 4,000 rpm for 5 minutes, then 100 μL of the supernatant was taken, 130 μL of methanol-water (V/V=1/1) was added to mix well), a standard curve with a suitable range was established according to the concentration of the test sample, and the LC-MS/MS with AB SCIEX API5500 was used, the concentration of the test sample in the plasma sample was determined in the MRM mode, and quantitative analysis was performed. Pharmacokinetic parameters were calculated according to drug concentration-time curve using a non-compartmental method by WinNonLin 6.3 software.

[3] = Stability experiment (high temperature, high humidity, light); format: physicochemical
Protocol: (§1) (1) High temperature experiment: an appropriate amount of a batch of test samples were taken into flat weighing bottles, and spread into a thin layer ≥5 mm thick. The above weighing bottles were placed in a constant temperature box at 40° C.±2° C./75%±5% RH and/or 60° C.±2° C./75%±5% RH for 30 days, the samples were taken on the 5th, 10th, and 30th days, and tested according to the key stability inspection items: the color changes of the samples were observed, the purities of the samples were checked by HPLC, and the structure of the samples were analyzed by X-ray powder diffraction.
as §1, with “(2)” for “(1)”, “humidity” for “temperature”, “placed” for “placed in a constant temperature box”, “25° C.,” for “40° C.±2° C./75%±5%”, “75%±5% or RH 90%±5%” for “and/or 60° C.±2° C./75%±5%”, “structures” for “structure”
as §1, with “(3) Light” for “(1) High temperature”, “placed and opened” for “placed”, “light” for “constant temperature”, “box (with UV)” for “box”, “the illuminance 4500±500 lx, UV light ≤0.7 w·h/m^2” for “40° C.±2° C./75%±5% RH and/or 60° C.±2° C./75%±5% RH”, “structures” for “structure”

[4] = Hygroscopicity experiment; format: physicochemical; conditions: 25° C., saturated ammonium chloride solution desiccator, 24 hours
Protocol: 1) A dry stoppered glass weighing bottle (outer diameter of 50 mm, height of 15 mm) was taken the day before, and placed in a 25° C.±1° C. constant temperature desiccator (a saturated ammonium chloride solution was placed at the bottom), and the weighing bottle was weighed accurately (m1).
2) An appropriate amount of the test sample was taken, and spread flat in the above weighing bottle, the thickness of the test sample was generally about 1 mm, and the weighing bottle was weighed accurately (m2).
3) The weighing bottle was open and placed under the above constant temperature and humidity conditions with the bottle cap for 24 hours.
4) The bottle cap was covered on the weighing bottle, and weighed accurately (m3), and calculate: the percentage increase in weight %=(m3−m2)/(m2−m1)×100%

[5] = High humidity (25° C., RH 75% ± 5%), the 5th day
[6] = High humidity (25° C., RH 75% ± 5%), the 10th day
[7] = High humidity (25° C., RH 75% ± 5%), the 30th day
[8] = High humidity (25° C., RH 90% ± 5%), the 5th day
[9] = High humidity (25° C., RH 90% ± 5%), the 10th day
[10] = High humidity (25° C., RH 90% ± 5%), the 30th day
[11] = High temperature (40° C.), the 5th day
[12] = High temperature (40° C.), the 10th day
[13] = High temperature (40° C.), the 30th day
[14] = High temperature (60° C.), the 5th day
[15] = High temperature (60° C.), the 10th day
[16] = High temperature (60° C.), the 30th day

With `CN1CCC(=C(F)c2cccc(NC(=O)c3c(F)cc(F)cc3F)n2)CC1.O=S(=O)(O)c1ccccc1` [Example 3] the “Concentration of compound having formula (I) in saturated aqueous solution” value ([1]; 37° C. water, shaking for 24 h) was 1890 µg/mL.
For `CN1CCC(=C(F)c2cccc(NC(=O)c3c(F)cc(F)cc3F)n2)CC1.CS(=O)(=O)O` [Example 1], the AUClast [2] was 238 ng·h/mL, the Cmax [2] was 0.0999 µg/mL and the Tmax [2] was 0.667 h. For the same compound, the “Concentration of compound having formula (I) in saturated aqueous solution” value ([1]; 37° C. water, shaking for 24 h) was 300880 µg/mL, the Appearance ([3]; 0 day) was “white” and the Purity ([3]; 0 day) was 99.66%. For the same compound, the Appearance [3, 5] was “white”, the Purity [3, 5] was 99.71% and the Appearance [3, 6] was “white”. For the same compound, the Purity [3, 6] was 99.74%, the Appearance [3, 7] was “white” and the Purity [3, 7] was 99.77%. For the same compound, the Appearance [3, 8] was “white”, the Purity [3, 8] was 99.68% and the Appearance [3, 9] was “white”. For the same compound, the Purity [3, 9] was 99.71%, the Appearance [3, 10] was “white” and the Purity [3, 10] was 99.72%. The Appearance [3, 11] was “white”, the Purity [3, 11] was 99.73% and the Appearance [3, 12] was “white”. The Purity [3, 12] was 99.72%, the Appearance [3, 13] was “white” and the Purity [3, 13] was 99.79%. The Appearance [3, 14] was “white”, the Purity [3, 14] was 99.72% and the Appearance [3, 15] was “white”. For the same compound, the Purity [3, 15] was 99.74%, the Appearance [3, 16] was “white” and the Purity [3, 16] was 99.8%. For the same compound, the Appearance ([3]; Light, the 5th day) was “white”, the Purity ([3]; Light, the 5th day) was 99.59% and the Appearance ([3]; Light, the 10th day) was “white”. For the same compound, the Purity ([3]; Light, the 10th day) was 99.43%, the Appearance ([3]; Light, the 30th day) was “white” and the Purity ([3]; Light, the 30th day) was 97.66%. The “Changes of appearance, purity and crystal form” value ([3]; high temperature, high humidity and light, 30 days) was “no obvious changes” and the Hygroscopic feature [4] was “no or almost no hygroscopicity”.
`CN1CCC(=C(F)c2cccc(NC(=O)c3c(F)cc(F)cc3F)n2)CC1` [Compound having formula (I), 2,4,6-trifluoro-N-(6-(fluoro(1-methylpiperidin-4-ylidene)methyl)pyridin-2-yl)benzamide] gave an AUC(0-t) ([2]; dog, plasma) of 117 ng·h/mL, a Cmax ([2]; dog, plasma, read-out: Cmax) of 0.0328 µg/mL and a Tmax ([2]; dog, plasma, read-out: Tmax) of 3.67 h. For the same compound, the “Water solubility (in words)” value [1] was “poor water solubility” and the solubility thermodynamic at 24 h ([1]; thermodynamic from solid, 37° C. water, shaking for 24 h, read-out: Concentration of compound having formula (I) in saturated aqueous solution) was 2590 µg/mL.
